The text below walks through data of patent US20130190268A1, “BIOTINYLATED POLYSACCHARIDES HAVING AN ANTITHROMBOTIC ACTIVITY AND IMPROVED METABOLIC STABILITY” (SANOFI, priority 2010, published 2013).

Where a name gives a salt, the structure may show the parent alone.

In general, IC50 refers to the point on the concentration scale where inhibition reaches its midpoint.

Data set [1] has as its target avidin (Gallus gallus, UniProt P02701). In words: Neutralization with avidin: avidin-coated beads, centrifugation, anti-factor Xa activity assayed in supernatant. Particulars: after centrifugation. The format is binding. The procedure:
The resulting mixture is centrifuged and the anti-factor Xa activity is assayed in the supernatant.

In data set [2] the target is coagulation factor Xa, in the presence of antithrombin (Homo sapiens, UniProt P01008). In words: Antithrombin-dependent anti-factor Xa activity (in vitro inhibition of coagulation factor Xa). In kind it is biochemical. The settings on record: read-out: IC50 (dose enabling 50% inhibition), anti-Xa activity (converted). An excerpt:
The activity of the compounds according to the invention was studied in an in vitro model of inhibition of coagulation factor Xa, in the presence of antithrombin (antithrombin-dependent anti-factor Xa activity), as described by J.-M. Herbert et al., Blood, 1998, 91, 4197-4205.

The target in data set [3] is T1, biotinidase (Homo sapiens, UniProt P43251).
T1 construct: Ten individual batches of human plasma originating from 5 men and 5 women; from tissue; host or cells: pooled human plasma (5 men, 5 women), sodium citrate
T1 sequence (P43251 22-523): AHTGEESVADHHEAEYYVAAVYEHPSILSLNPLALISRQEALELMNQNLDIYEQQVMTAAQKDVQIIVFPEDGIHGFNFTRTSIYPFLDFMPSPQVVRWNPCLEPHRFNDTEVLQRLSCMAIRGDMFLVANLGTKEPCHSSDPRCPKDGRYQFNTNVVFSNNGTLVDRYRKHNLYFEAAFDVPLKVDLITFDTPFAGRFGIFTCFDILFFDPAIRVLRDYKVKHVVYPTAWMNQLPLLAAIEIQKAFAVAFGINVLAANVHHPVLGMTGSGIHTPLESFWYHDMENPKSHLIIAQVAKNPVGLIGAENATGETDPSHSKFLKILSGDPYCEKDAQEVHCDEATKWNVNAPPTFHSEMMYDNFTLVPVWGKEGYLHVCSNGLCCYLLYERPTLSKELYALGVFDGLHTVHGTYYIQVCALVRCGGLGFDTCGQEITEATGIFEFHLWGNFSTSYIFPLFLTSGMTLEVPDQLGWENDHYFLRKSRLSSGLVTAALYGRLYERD
Put plainly: Metabolic stability in human plasma medium at pH 6.0 with respect to biotinidase activity. In kind it is in vitro ADME. Particulars: pooled human plasma, pH 6.0, 1 μM, 37° C., LC/MS-MS. The procedure:
The metabolic stability of the compounds according to the invention with respect to biotinidase activity was studied on human plasma having been sampled on sodium citrate as anticoagulant. Ten individual batches of human plasma originating from 5 men and 5 women, constituting the evaluation matrix, were used and pooled in order to evaluate the metabolic stability of the compounds. The human plasma was incubated under the following conditions: • incubation medium (freshly prepared): 740 μl of 54 mM of sodium phosphate buffer, pH 6.0, containing 1.08 mM of disodium EDTA and 4.3 mM of cysteamine hydrochloride, • human plasma: 40 μl • concentrations of the compounds to be studied: 1 μM • incubation time: 24 hours • incubation temperature: 37° C.
The reaction is initiated by adding the compound to be studied, after a 10-minute period of preincubation of the plasma and of the incubation medium. At the end of the incubation period (24 hours), the reaction is stopped.
The compounds according to the invention are quantified according to a specific LC/MS-MS method.
The metabolization of each compound studied is measured by monitoring the disappearance of the unchanged product, the concentrations being determined for each incubation sample at time 0 hours and at time 24 hours, and the percentage metabolization being calculated according to the following formula: […]
The terms [compound at T 24H] and [compound at T 0H] correspond to the concentration of the compound to be studied in the reactive medium after 24 hours and before the beginning of the reaction, respectively.

Chain of avidin (P02701 25-152, species assumed): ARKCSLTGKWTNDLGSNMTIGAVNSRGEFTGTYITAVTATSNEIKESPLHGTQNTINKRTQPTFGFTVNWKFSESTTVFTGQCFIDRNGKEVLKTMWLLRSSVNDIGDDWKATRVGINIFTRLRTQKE
Chain of coagulation factor Xa, in the presence of antithrombin (P01008 33-464): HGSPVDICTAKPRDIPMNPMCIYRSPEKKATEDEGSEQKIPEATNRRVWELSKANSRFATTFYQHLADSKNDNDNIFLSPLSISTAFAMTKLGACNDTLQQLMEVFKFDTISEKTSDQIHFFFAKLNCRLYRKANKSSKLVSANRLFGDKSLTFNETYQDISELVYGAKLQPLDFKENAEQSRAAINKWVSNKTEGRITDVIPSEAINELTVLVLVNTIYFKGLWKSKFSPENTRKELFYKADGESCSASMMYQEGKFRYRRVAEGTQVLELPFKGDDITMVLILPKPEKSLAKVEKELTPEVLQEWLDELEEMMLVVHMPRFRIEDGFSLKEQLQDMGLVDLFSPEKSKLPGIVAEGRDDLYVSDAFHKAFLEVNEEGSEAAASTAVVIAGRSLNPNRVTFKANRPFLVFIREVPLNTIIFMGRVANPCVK

As for `COC1OC(COS(=O)(=O)O)C(OC2OC(C(=O)O)C(OC3OC(COS(=O)(=O)O)C(OC4OC(C(=O)O)C(OC5OC(COS(=O)(=O)O)C(OC)C(OC)C5NC(=O)CCCCCOCCCCCC5SCC6NC(=O)NC65)C(OC)C4OC)C(OS(=O)(=O)O)C3OS(=O)(=O)O)C(OC)C2OC)C(OS(=O)(=O)O)C1OS(=O)(=O)O` [Compound 1, Methyl (2-deoxy-3,4-di-O-methyl-2-{[6-({5-[(3aS,4S,6aR)-2-oxohexahydro-1H-thieno[3,4-d]imidazol-4-yl]pentyl}oxy)hexanoyl]amino}-6-O-sulfonato-α-D-glucopyranosyl)-(1→4)-(2,3-di-O-methyl-β-D-glucopyranosyluronate)-(1→4)-(2,3,6-tri-O-sulfonato-α-D-glucopyranosyl)-(1→4)-(2,3-di-O-methyl-α-L-idopyranosyluronate)-(1→4)-2,3,6-tri-O-sulfonato-α-D-glucopyranoside, sodium salt], the “anti-factor Xa activity in the supernatant” value (“anti-factor Xa activity” below) turned out to be 1.3 ± 0.9% in data set [1] (0.00005 μg product/μg avidin), 5.6 ± 1.0% in data set [1] (0.0001 μg product/μg avidin), 6.0 ± 0.2% in data set [1] (0.001 μg product/μg avidin) and 6.8 ± 2.0% in data set [1] (0.01 μg product/μg avidin). In addition, the IC50 in data set [2] is 10 nM. Further, in data set [3], the “metabolization percentage (compound metabolized after 24 h)” value (“metabolization percentage” for short) came out at 1.7%.
In the case of `COC1OC(COS(=O)(=O)O)C(OC2OC(C(=O)O)C(OC3OC(COS(=O)(=O)O)C(OC4OC(C(=O)O)C(OC5OC(COS(=O)(=O)O)C(OC)C(OC)C5NC(=O)CCCCCN(C)CCCCCC5SCC6NC(=O)NC65)C(OC)C4OC)C(OS(=O)(=O)O)C3OS(=O)(=O)O)C(OC)C2OC)C(OS(=O)(=O)O)C1OS(=O)(=O)O` [Compound 2, Methyl (2-deoxy-3,4-di-O-methyl-2-{[6-(methyl{5-[(3aS,4S,6aR)-2-oxohexahydro-1H-thieno[3,4-d]imidazol-4-yl]pentyl}amino)hexanoyl]amino}-6-O-sulfonato-α-D-glucopyranosyl)-(1→4)-(2,3-di-O-methyl-β-D-glucopyranosyluronate)-(1→4)-(2,3,6-tri-O-sulfonato-α-D-glucopyranosyl)-(1→4)-(2,3-di-O-methyl-α-L-idopyranosyluronate)-(1→4)-2,3,6-tri-O-sulfonato-α-D-glucopyranoside, sodium salt], the “anti-factor Xa activity” value in data set [1] (0.00005 μg product/μg avidin) was determined as 4.9 ± 1.4%; in data set [1] (0.0001 μg product/μg avidin) it was 3.0 ± 0.7%; in data set [1] (0.001 μg product/μg avidin) it was 5.2 ± 0.5%; in data set [1] (0.01 μg product/μg avidin), 4.1 ± 0.2%. In addition, in data set [2], the IC50 was 9.93 nM. Moreover, in data set [3], the “metabolization percentage” value is on record as −3.3%.
`COC1OC(COS(=O)(=O)O)C(OC2OC(C(=O)O)C(OC3OC(COS(=O)(=O)O)C(OC4OC(C(=O)O)C(OC5OC(COS(=O)(=O)O)C(OC)C(OC)C5NC(=O)CCCCCN(C)C(=O)CCCCC5SCC6NC(=O)NC65)C(OC)C4OC)C(OS(=O)(=O)O)C3OS(=O)(=O)O)C(OC)C2OC)C(OS(=O)(=O)O)C1OS(=O)(=O)O` [Compound 3, Methyl (2-deoxy-3,4-di-O-methyl-2-{[6-(methyl{5-[(3aS,4S,6aR)-2-oxohexahydro-1H-thieno[3,4-d]imidazol-4-yl]pentanoyl}amino)hexanoyl]amino}-6-O-sulfonato-α-D-glucopyranosyl)-(1→4)-(2,3-di-O-methyl-β-D-glucopyranosyluronate)-(1→4)-(2,3,6-tri-O-sulfonato-α-D-glucopyranosyl)-(1→4)-(2,3-di-O-methyl-α-L-idopyranosyluronate)-(1→4)-2,3,6-tri-O-sulfonato-α-D-glucopyranoside, sodium salt]: the “anti-factor Xa activity” value was 0.7 ± 2.4% in data set [1] (0.00005 μg product/μg avidin), 1.2 ± 0.6% in data set [1] (0.0001 μg product/μg avidin), 1.8 ± 0.2% in data set [1] (0.001 μg product/μg avidin) and 0.9%^(1) in data set [1] (0.01 μg product/μg avidin). For the same molecule, in data set [2], the IC50 is 9.53 nM. Besides, in data set [3], the “metabolization percentage” value is given as 0.8%.
On to `COC1OC(COS(=O)(=O)O)C(OC2OC(C(=O)O)C(OC3OC(COS(=O)(=O)O)C(OC4OC(C(=O)O)C(OC5OC(COS(=O)(=O)O)C(OC)C(OC)C5NC(=O)CCCCNC(=O)NCCCCC5SCC6NC(=O)NC65)C(OC)C4OC)C(OS(=O)(=O)O)C3OS(=O)(=O)O)C(OC)C2OC)C(OS(=O)(=O)O)C1OS(=O)(=O)O` [Compound 4, Methyl (2-deoxy-3,4-di-O-methyl-2-({5-[({4-[(3aS,4S,6aR)-2-oxohexahydro-1H-thieno[3,4-d]imidazol-4-yl]butyl}carbamoyl)amino]pentanoyl}amino)-6-O-sulfonato-α-D-glucopyranosyl)-(1→4)-(2,3-di-O-methyl-β-D-glucopyranosyluronate)-(1→4)-(2,3,6-tri-O-sulfonato-α-D-glucopyranosyl)-(1→4)-(2,3-di-O-methyl-α-L-idopyranosyluronate)-(1→4)-2,3,6-tri-O-sulfonato-α-D-glucopyranoside, sodium salt], for which the “anti-factor Xa activity” value in data set [1] (0.00005 μg product/μg avidin) is given as 3.6 ± 1.2%; in data set [1] (0.0001 μg product/μg avidin) it was 2.5 ± 2.3%; in data set [1] (0.001 μg product/μg avidin), 4.5 ± 0.8%; in data set [1] (0.01 μg product/μg avidin), 2.4 ± 0.0%. Further, the IC50 in data set [2] was 9.22 nM. In addition, in data set [3], the “metabolization percentage” value was found to be 5.3%.
For `COC1OC(COS(=O)(=O)O)C(OC2OC(C(=O)O)C(OC3OC(COS(=O)(=O)O)C(OC4OC(C(=O)O)C(OC5OC(COS(=O)(=O)O)C(OC)C(OC)C5NC(=O)CCCCCNC(=O)CCCCC5SCC6NC(=O)NC65)C(OC)C4OC)C(OS(=O)(=O)O)C3OS(=O)(=O)O)C(OC)C2OC)C(OS(=O)(=O)O)C1OS(=O)(=O)O` (stereo not drawn) [Idrabiotaparinux, idrabiotaparinux, reference compound], the “anti-factor Xa activity” value is listed as 1.2 ± 0.0% in data set [1] (0.00005 μg product/μg avidin), 2.5 ± 1.1% in data set [1] (0.0001 μg product/μg avidin), 2.6 ± 0.3% in data set [1] (0.001 μg product/μg avidin) and 5.2 ± 3.4% in data set [1] (0.01 μg product/μg avidin). Besides, the IC50 in data set [2] is 9.49 nM. Further, the “metabolization percentage” value in data set [3] is 15.9%.
